Test results from patent publication US8962810B2, “Macrocyclic heterocyclic compound for inhibiting hepatitis C virus and preparation and use thereof” (AB Pharma Ltd., priority 2011, dated 2015).

Each compound was assayed against T1, HCV Protease (HCV NS3-4A) (Hepatitis C virus genotype 1a, UniProt P27958) (assay: HCV Protease (HCV NS3-4A) anti-activity assay, fluorescence quenching (FRET)).
T1 construct: HCV Protease: HCV NS3-4A, self-prepared; made in house
Format: biochemical
Method: Method of HCV Protease (HCV NS3-4A) Anti-Activity Assay:
HCV Protease (HCV NS3/4A) anti-activity was measured by an inter fluorescence quenching system. EDANS group and DABCYL group were bonded on each side of a peptide. When protein cleavage started, fluorescence quenching of EDANS by DABCYL was detected. We used a high throughput screening model for HCV NS3/4A protease inhibitors, the tested drugs were prepared with 5 different concentrations, positive control and negative control were set in the same time. In the optimized reaction system, fluorescence were determined at ex=355, em=520 by a Polarstar fluorescence detector. Calculate the inhibition rate of each concentration; calculate the half maximal inhibitory concentration (IC50) with the method of Reed-Muench.
Materials: HCV Protease: HCV NS3-4A, self-prepared, stored at −70. HCV Protease substrate (FRET-S): Ac-Asp-Glu-Asp(EDANS)-Glu-Glu-Abu-ψ-[COO]-Ala-Ser-Lys-(DABCYL)-NH2, supplied by AnaSpec USA, prepared of 100 μM by DMSO, distributed and stored at −20 without light. Buffer solution: 30 mM NaCl, 5 mM CaCl2, 10 mM DTT, 50 mM Tris (pH7.8).
Instrument: fluorescence detector Polarstar from Germany Company BMG
Preparation and operation: preparation of 10 mg/mL by DMSO, dilute of 10000, 2000, 400, 80, 16 ng/mL as tested concentrations by buffer solutions, adding 20 μL into each well, the total reaction system is 200 μL, to make the final concentrations of 1000, 200, 40, 8, 1.6 ng/mL. Add 140 μL buffer solution, 20 μL drug solution, 20 μL HCV protease, and 20 μL FRET-S substrate with final concentration of 0.25 μM into 96-well fluorescence microtiterplate, the reaction started at 37, set control wells of protease-substrate reaction and of isolate substrate and isolate protease, fluorescence signals were detected by fluorescence detector (ex=355,em=520). Calculate the inhibition rates of samples for each concentration by comparison of fluorescence value of sample in each well and the fluorescence control value of enzyme, calculate the half maximal inhibitory concentration (IC50) of samples to HCV protease with the method of Reed-Muench.
THF and Et2O were distilled from sodium metal and benzophenone. DCM, pentane and hexane were distilled form calcium hydride. Special raw materials and intermediates in the invention were supplied by Zannan SciTech Co. for ordered processing, Ltd. in Shanghai, others reagents were purchased from Shanghai reagent company, Aldrich, Acros etc. If intermediates or products of synthesis were not enough for the next step of reaction, the synthesis shall be repeated until it is sufficient. The HCV protease (HCV NS3-4A) inhibitory activity assays in the present invention were performed by relevant cooperation service units of China Institutes for Biological Science in Beijing.

T1 sequence (P27958 1658-1711): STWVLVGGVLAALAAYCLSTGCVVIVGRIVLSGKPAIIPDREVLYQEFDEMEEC
T1 sequence (P27958 1027-1657): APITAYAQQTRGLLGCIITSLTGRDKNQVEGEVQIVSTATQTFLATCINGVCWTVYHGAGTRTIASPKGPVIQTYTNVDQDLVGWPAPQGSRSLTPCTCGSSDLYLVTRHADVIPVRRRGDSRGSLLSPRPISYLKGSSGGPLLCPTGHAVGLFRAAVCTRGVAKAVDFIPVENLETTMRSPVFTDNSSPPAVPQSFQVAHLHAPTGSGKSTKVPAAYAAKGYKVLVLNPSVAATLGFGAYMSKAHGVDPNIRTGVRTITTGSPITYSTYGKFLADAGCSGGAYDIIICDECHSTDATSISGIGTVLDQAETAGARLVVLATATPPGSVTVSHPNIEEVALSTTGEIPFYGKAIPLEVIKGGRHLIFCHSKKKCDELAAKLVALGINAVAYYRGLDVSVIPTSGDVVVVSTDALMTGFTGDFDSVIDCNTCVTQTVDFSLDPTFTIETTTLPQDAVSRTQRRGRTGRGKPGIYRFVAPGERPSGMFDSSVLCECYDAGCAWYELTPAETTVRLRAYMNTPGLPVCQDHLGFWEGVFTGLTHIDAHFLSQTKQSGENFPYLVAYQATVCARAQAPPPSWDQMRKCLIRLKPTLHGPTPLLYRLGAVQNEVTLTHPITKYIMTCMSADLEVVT

| IC50 | SMILES |
| --- | --- |
| 51 to 300 nM | C=C[C@H]1C[C@@]1(NC(=O)C1C[C@@H]2CN1C(=O)[C@H](C(C)(C)C)NC(=O)OCC/C=C/COc1ccc3c(c1)CN(C3)C(=O)O2)C(=O)NS(=O)(=O)C1CC1 (some centres unmarked) [Compound 15bm] |
| 0.1 to 5 nM | C=C[C@H]1C[C@@]1(NC(=O)C1C[C@@H]2CN1C(=O)[C@H](C(C)(C)C)NC(=O)OCC(C)(C)CCCCCOc1ccc3c(c1)CN(C3)C(=O)O2)C(=O)NS(=O)(=O)C1CC1 (some centres unmarked) [Compound 15bn] |
| 0.1 to 5 nM | CC[C@H]1C[C@@]1(NC(=O)C1C[C@@H]2CN1C(=O)[C@H](C(C)(C)C)NC(=O)OCC(C)(C)CCCCCOc1ccc3c(c1)CN(C3)C(=O)O2)C(=O)NS(=O)(=O)C1CC1 (some centres unmarked) [Compound 15bp] |
| 51 to 300 nM | CC[C@H]1C[C@@]1(NC(=O)C1C[C@@H]2CN1C(=O)[C@H](C(C)(C)C)NC(=O)OCCCCCCOC(=O)c1ccc3c(c1)CN(C3)C(=O)O2)C(=O)NS(=O)(=O)C1CC1 (some centres unmarked) [Compound 15bq] |
| 51 to 300 nM | CC[C@H]1C[C@@]1(NC(=O)C1C[C@@H]2CN1C(=O)[C@H](C(C)(C)C)NC(=O)OCC(C)(C)CCCCOC(=O)c1ccc3c(c1)CN(C3)C(=O)O2)C(=O)NS(=O)(=O)C1CC1 (some centres unmarked) [Compound 15br] |
| 51 to 300 nM | CCC1CC1(NC(=O)C1CC2CN1C(=O)C(C(C)(C)C)NC(=O)OCC(C)(C)CCCCCOC(=O)c1ccc3c(c1)CN(C3)C(=O)O2)C(=O)NS(=O)(=O)C1CC1 (centres unmarked) [Compound 15bs] |
| 0.1 to 5 nM | C=CC1CC1(NC(=O)C1CC2CN1C(=O)C(C(C)(C)C)NC(=O)OCCCC=Cc1c3c(cc4c1OCO4)CN(C3)C(=O)O2)C(=O)NS(=O)(=O)C1CC1 (centres unmarked) [Compound 15bt] |
| 0.1 to 5 nM | C=C[C@H]1C[C@@]1(NC(=O)C1C[C@@H]2CN1C(=O)[C@H](C(C)(C)C)NC(=O)OCCCC/C=C\c1c3c(cc4c1OCO4)CN(C3)C(=O)O2)C(=O)NS(=O)(=O)C1CC1 (some centres unmarked) [Compound 15bu] |
| 0.1 to 5 nM | C=C[C@H]1C[C@@]1(NC(=O)C1C[C@@H]2CN1C(=O)[C@H](C(C)(C)C)NC(=O)OCC(C)(C)CC/C=C\c1c3c(cc4c1OCO4)CN(C3)C(=O)O2)C(=O)NS(=O)(=O)C1CC1 (some centres unmarked) [Compound 15bv] |
| 0.1 to 5 nM | CC[C@H]1C[C@@]1(NC(=O)C1C[C@@H]2CN1C(=O)[C@H](C(C)(C)C)NC(=O)OCCCC/C=C\c1c3c(cc4c1OCO4)CN(C3)C(=O)O2)C(=O)NS(=O)(=O)C1CC1 (some centres unmarked) [Compound 15bw] |
| 0.1 to 5 nM | CC[C@H]1C[C@@]1(NC(=O)C1C[C@@H]2CN1C(=O)[C@H](C(C)(C)C)NC(=O)OCCCCCCc1c3c(cc4c1OCO4)CN(C3)C(=O)O2)C(=O)NS(=O)(=O)C1CC1 (some centres unmarked) [Compound 15bx] |
| 0.1 to 5 nM | CC[C@H]1C[C@@]1(NC(=O)C1C[C@@H]2CN1C(=O)[C@H](C(C)(C)C)NC(=O)OCC(C)(C)CCCCc1c3c(cc4c1OCO4)CN(C3)C(=O)O2)C(=O)NS(=O)(=O)C1CC1 (some centres unmarked) [Compound 15by] |
| 0.1 to 5 nM | C=C[C@H]1C[C@@]1(NC(=O)C1C[C@@H]2CN1C(=O)[C@H](C(C)(C)C)NC(=O)OCC1(CC/C=C/COc3cccc4c3CN(C4)C(=O)O2)CC1)C(=O)NS(=O)(=O)C1CC1 (some centres unmarked) [Compound 15c] |
| 0.1 to 5 nM | CC[C@H]1C[C@@]1(NC(=O)C1C[C@@H]2CN1C(=O)[C@H](C(C)(C)C)NC(=O)OCC1(C/C=C/CSc3cccc4c3CN(C4)C(=O)O2)CC1)C(=O)NS(=O)(=O)C1CC1 (some centres unmarked) [Compound 15ca] |
| 0.1 to 5 nM | CC[C@H]1C[C@@]1(NC(=O)C1C[C@@H]2CN1C(=O)[C@H](C(C)(C)C)NC(=O)OCC(C)(C)C/C=C/CSc1cccc3c1CN(C3)C(=O)O2)C(=O)NS(=O)(=O)C1CC1 (some centres unmarked) [Compound 15cb] |
| 0.1 to 5 nM | CC[C@H]1C[C@@]1(NC(=O)C1C[C@@H]2CN1C(=O)[C@H](C(C)(C)C)NC(=O)OCCC/C=C/CSc1cccc3c1CN(C3)C(=O)O2)C(=O)NS(=O)(=O)C1CC1 (some centres unmarked) [Compound 15cc] |
| 0.1 to 5 nM | CC[C@H]1C[C@@]1(NC(=O)C1C[C@@H]2CN1C(=O)[C@H](C(C)(C)C)NC(=O)OCC(C)(C)CCCCN(C)c1cccc3c1CN(C3)C(=O)O2)C(=O)NS(=O)(=O)C1CC1 (some centres unmarked) [Compound 15cd] |
| 0.1 to 5 nM | C=C[C@H]1C[C@@]1(NC(=O)C1C[C@@H]2CN1C(=O)[C@H](C(C)(C)C)NC(=O)OCC1(CCCCCOc3cccc4c3CN(C4)C(=O)O2)CC1)C(=O)NS(=O)(=O)C1CC1 (some centres unmarked) [Compound 15d] |

| IC50 | SMILES |
| --- | --- |
| 0.1 to 5 nM | CC[C@H]1C[C@@]1(NC(=O)C1C[C@@H]2CN1C(=O)[C@H](C(C)(C)C)NC(=O)OCC1(CCCCOc3cccc4c3CN(C4)C(=O)O2)CC1)C(=O)NS(=O)(=O)C1CC1 (some centres unmarked) [Compound 15e] |
| 0.1 to 5 nM | CC[C@H]1C[C@@]1(NC(=O)C1C[C@@H]2CN1C(=O)[C@H](C(C)(C)C)NC(=O)OCC1(C/C=C/COc3cccc4c3CN(C4)C(=O)O2)CC1)C(=O)NS(=O)(=O)C1CC1 (some centres unmarked) [Compound 15f] |
| 0.1 to 5 nM | C=C[C@H]1C[C@@]1(NC(=O)C1C[C@@H]2CN1C(=O)[C@H](C(C)(C)C)NC(=O)OCC1(C/C=C/COc3cccc4c3CN(C4)C(=O)O2)CC1)C(=O)NS(=O)(=O)C1CC1 (some centres unmarked) [Compound 15g] |
| 5.1 to 50 nM | CC[C@H]1C[C@@]1(NC(=O)C1C[C@@H]2CN1C(=O)[C@H](C(C)(C)C)NC(=O)OCC(C)(C)C/C=C/COc1c(OC)ccc3c1CN(C3)C(=O)O2)C(=O)NS(=O)(=O)C1CC1 (some centres unmarked) [Compound 15h] |
| 0.1 to 5 nM | C=C[C@H]1C[C@@]1(NC(=O)C1C[C@@H]2CN1C(=O)[C@H](C(C)(C)C)NC(=O)OCCCC/C=C/COc1c(OC)ccc3c1CN(C3)C(=O)O2)C(=O)NS(=O)(=O)C1CC1 (some centres unmarked) [Compound 15j] |
| 0.1 to 5 nM | C=C[C@H]1C[C@@]1(NC(=O)C1C[C@@H]2CN1C(=O)[C@H](C(C)(C)C)NC(=O)OCCC/C=C/COc1c(OC)ccc3c1CN(C3)C(=O)O2)C(=O)NS(=O)(=O)C1CC1 (some centres unmarked) [Compound 15k] |
| 5.1 to 50 nM | CCC1CC1(NC(=O)C1CC2CN1C(=O)C(C(C)(C)C)NC(=O)OCCC=CCOc1c(OC)ccc3c1CN(C3)C(=O)O2)C(=O)NS(=O)(=O)C1CC1 (centres unmarked) [Compound 15m] |
| 0.1 to 5 nM | C=C[C@H]1C[C@@]1(NC(=O)C1C[C@@H]2CN1C(=O)[C@H](C(C)(C)C)NC(=O)OCC/C=C/COc1c(OC)ccc3c1CN(C3)C(=O)O2)C(=O)NS(=O)(=O)C1CC1 (some centres unmarked) [Compound 15n] |
| 0.1 to 5 nM | C=CC1CC1(NC(=O)C1CC2CN1C(=O)C(C(C)(C)C)NC(=O)OCC(C)(C)CC=CCOc1c(OC)ccc3c1CN(C3)C(=O)O2)C(=O)NS(=O)(=O)C1CC1 (centres unmarked) [Compound 15p] |
| 5.1 to 50 nM | CC[C@H]1C[C@@]1(NC(=O)C1C[C@@H]2CN1C(=O)[C@H](C(C)(C)C)NC(=O)OCCCC/C=C/COc1c(OC)ccc3c1CN(C3)C(=O)O2)C(=O)NS(=O)(=O)C1CC1 (some centres unmarked) [Compound 15q] |
| 0.1 to 5 nM | CC[C@H]1C[C@@]1(NC(=O)C1C[C@@H]2CN1C(=O)[C@H](C(C)(C)C)NC(=O)OCC(C)(C)CC/C=C/COc1cccc3c1CN(C3)C(=O)O2)C(=O)NS(=O)(=O)C1CC1 (some centres unmarked) [Compound 15r] |
| 0.1 to 5 nM | CCC1CC1(NC(=O)C1CC2CN1C(=O)C(C(C)(C)C)NC(=O)OCC(C)(C)CCCCOc1cccc3c1CN(C3)C(=O)O2)C(=O)NS(=O)(=O)C1CC1 (centres unmarked) [Compound 15u] |
| 0.1 to 5 nM | CCC1CC1(NC(=O)C1CC2CN1C(=O)C(C(C)(C)C)NC(=O)OCC(C)(C)CCCCCOc1cc(OC)cc3c1CN(C3)C(=O)O2)C(=O)NS(=O)(=O)C1CC1 (centres unmarked) [Compound 15v] |
| 0.1 to 5 nM | CC[C@H]1C[C@@]1(NC(=O)C1C[C@@H]2CN1C(=O)[C@H](C(C)(C)C)NC(=O)OCCCCCCOc1cccc3c1CN(C3)C(=O)O2)C(=O)NS(=O)(=O)C1CC1 (some centres unmarked) [Compound 15w] |
| 0.1 to 5 nM | CC[C@H]1C[C@@]1(NC(=O)C1C[C@@H]2CN1C(=O)[C@H](C(C)(C)C)NC(=O)OCCCCCCCOc1cccc3c1CN(C3)C(=O)O2)C(=O)NS(=O)(=O)C1CC1 (some centres unmarked) [Compound 15x] |
| 5.1 to 50 nM | CCC1CC1(NC(=O)C1CC2CN1C(=O)C(C(C)(C)C)NC(=O)OCCCCCCCCOc1cccc3c1CN(C3)C(=O)O2)C(=O)NS(=O)(=O)C1CC1 (centres unmarked) [Compound 15y] |
| 5.1 to 50 nM | CC[C@H]1C[C@@]1(NC(=O)C1C[C@@H]2CN1C(=O)[C@H](C(C)(C)C)NC(=O)OCCCCCCCCCOc1cccc3c1CN(C3)C(=O)O2)C(=O)NS(=O)(=O)C1CC1 (some centres unmarked) [Compound 15z] |
